# Experimental data from ChEMBL document CHEMBL4699592, “Nature-Inspired (di)Azine-Bridged Bisindole Alkaloids with Potent Antibacterial In Vitro and In Vivo Efficacy against Methicillin-Resistant Staphylococcus aureus” (J Med Chem, 2020).
# Activity calls are given as the source filed them. The calls are words filed in the database; no cut-off is given here.
# Legend:
# Cell membrane [1] = experiment: Induction of cell membrane permeabilization in methicillin resistant Staphylococcus aureus ATCC 700699 measured at 5 mins interval for 2 hrs by propidium iodide staining based fluorescence assay; assay type: subcellular
# Cell membrane [2] = experiment: Induction of cell membrane permeabilization in GFP-expressing Staphylococcus aureus ATCC 700699 assessed as increase in cellular ATP leakage at 5 fold MIC measured after 0.5 hrs by Bactiter-glo assay; assay type: subcellular
# Staphylococcus aureus [3] = experiment: Antibacterial activity against […] Staphylococcus aureus ATCC 700699 after 24 hrs by broth microdilution method; assay type: functional
# Acinetobacter baumannii [4] = experiment: Antibacterial activity against Acinetobacter baumannii ATCC BAA-1605 at 0.78 to 100 uM after 24 hrs by broth microdilution method; assay type: functional, organism-based; conditions: dose microM 0.78-100, time 24.0 hrs
# [5] = system: Mycobacterium tuberculosis; experiment: Antibacterial activity against Mycobacterium tuberculosis H37Rv at 0.78 to 100 uM after 5 days by resazurin dye based fluorescence assay; assay type: functional, organism-based; conditions: dose microM 0.78-100, time 5.0 day
# Staphylococcus aureus [6] = experiment: Antibacterial activity against methicillin susceptible Staphylococcus aureus ATCC 25923 at 0.78 to 100 uM after 24 hrs by broth microdilution method; assay type: functional, organism-based; conditions: dose microM 0.78-100, time 24.0 hrs
# Enterococcus faecium [7] = experiment: Antibacterial activity against vancomycin-resistant Enterococcus faecium ATCC 35667 at 0.78 to 100 uM after 24 hrs by broth microdilution method; assay type: functional, organism-based; conditions: dose microM 0.78-100, time 24.0 hrs
# Enterococcus faecalis [8] = experiment: Antibacterial activity against Enterococcus faecalis ATCC 51299 at 0.78 to 100 uM after 24 hrs by broth microdilution method; assay type: functional, organism-based; conditions: dose microM 0.78-100, time 24.0 hrs
# Enterococcus faecium [9] = experiment: Antibacterial activity against vancomycin-resistant Enterococcus faecium ATCC 700221 at 0.78 to 100 uM after 24 hrs by broth microdilution method; assay type: functional, organism-based; conditions: dose microM 0.78-100, time 24.0 hrs
# Enterococcus faecalis [10] = experiment: Antibacterial activity against Enterococcus faecalis ATCC 29212 at 0.78 to 100 uM after 24 hrs by broth microdilution method; assay type: functional, organism-based; conditions: dose microM 0.78-100, time 24.0 hrs
# Escherichia coli = experiment: Antimicrobial activity against Escherichia coli ATCC BAA 2469 after 24 hrs by broth microdilution assay; assay type: functional
# Acinetobacter baumannii [11] = experiment: Antibacterial activity against Acinetobacter baumannii ATCC BAA-1605 after 24 hrs by broth microdilution method; assay type: functional
# Klebsiella pneumoniae = experiment: Antibacterial activity against Klebsiella pneumoniae ATCC 700603 after 24 hrs by broth microdilution method; assay type: functional
# Pseudomonas aeruginosa = experiment: Antibacterial activity against Pseudomonas aeruginosa ATCC 27853 measured after 24 hrs by broth microdilution method; assay type: functional
# [12] = Solubility of compound in pH 7.7 PBS buffer; assay type: physicochemical
# Staphylococcus aureus [13] = experiment: Antibacterial activity against methicillin-resistant Staphylococcus aureus USA300 LAC at 0.15 to 25 uM incubated for 24 hrs under low pyruvate containing medium by resazurin dye based fluorescence assay; assay type: functional, organism-based; conditions: dose microM 0.15-25, time 24.0 hrs
# Staphylococcus aureus [14] = experiment: Antibacterial activity against methicillin-resistant pyruvate kinase deficient Staphylococcus aureus USA300 LAC at 0.15 to 25 uM incubated for 24 hrs under low pyruvate containing medium by resazurin dye based fluorescence assay; assay type: functional, organism-based; conditions: dose microM 0.15-25, time 24.0 hrs
# MRC5 = experiment: Cytotoxicity against human MRC5 cells assessed as reduction in cell viability at >=12.5 uM measured after 48 hrs by resazurin dye based fluorescence assay; conditions: mrc5, 48 h
# Staphylococcus aureus [15] = experiment: Bactericidal activity against […] Staphylococcus aureus ATCC 700699 assessed as reduction in bacterial viability at 5 fold MIC incubated for 6 hrs by time kill assay relative to control; assay type: functional
# [16] = Selectivity index, ratio of IC50 for cytotoxicity against human THP-1 cells to MIC90 for antibacterial activity against […] Staphylococcus aureus ATCC 700699; assay type: toxicity, cell-based; conditions: read-out: Selectivity Index
# Staphylococcus aureus [17] = experiment: Bactericidal activity against […] Staphylococcus aureus ATCC 700699 assessed as colony forming units at 5 fold MIC measured after 24 hrs by time kill assay; assay type: functional
# THP-1 = experiment: Cytotoxicity against human THP-1 cells assessed as reduction in cell viability at >=12.5 uM measured after 48 hrs by resazurin dye based fluorescence assay; conditions: thp-1, 48 h
# [18] = Selectivity index, ratio of IC50 for cytotoxicity against human MRC5 cells to MIC90 for antibacterial activity against […] Staphylococcus aureus ATCC 700699; assay type: toxicity, cell-based; conditions: read-out: Selectivity Index
# Staphylococcus aureus [19] = experiment: Antibacterial activity against methicillin-resistant Staphylococcus aureus USA300 LAC at 0.15 to 25 uM incubated for 24 hrs under low glucose medium by resazurin dye based fluorescence assay; assay type: functional, organism-based; conditions: dose microM 0.15-25, time 24.0 hrs
# [20] = Stability of compound in pH 7.7 DMSO:PBS solution at 0.19 uM measured after 6 hrs; assay type: physicochemical; conditions: buffer, pH 7.7, 6 h
# Staphylococcus aureus [21] = experiment: Bactericidal activity against […] Staphylococcus aureus ATCC 700699 assessed as colony forming unit at 5 fold MIC incubated for 6 hrs followed by compound washout and subsequent compound addition by time kill assay; assay type: functional
molecule,measurement,setting,value
COc1c(N2C[C@@H]3CCCN[C@@H]3C2)c(F)cc2c(=O)c(C(=O)O)cn(C3CC3)c12,Activity,Cell membrane [1],inactive
same,Activity,Cell membrane [2],inactive
c1ccc2c(-c3cnc(-c4c[nH]c5ccccc45)nc3)c[nH]c2c1,MIC90,Staphylococcus aureus [3],12.5 µM
same,Activity,Acinetobacter baumannii [4],inactive
same,Activity,[5],inactive
Oc1ccc2[nH]cc(-c3cnc(-c4c[nH]c5ccc(O)cc45)cn3)c2c1,Activity,Staphylococcus aureus [6],inactive
same,Activity,Enterococcus faecium [7],inactive
same,MIC90,Staphylococcus aureus [3],> 100 µM
same,Activity,Acinetobacter baumannii [4],inactive
same,Activity,Enterococcus faecalis [8],inactive
same,Activity,Enterococcus faecium [9],inactive
same,Activity,Enterococcus faecalis [10],inactive
same,Activity,[5],inactive
COLISTIN,MIC,Escherichia coli,0.78 µM
same,MIC,Acinetobacter baumannii [11],0.78 µM
same,MIC,Klebsiella pneumoniae,1.56 µM
same,MIC,Pseudomonas aeruginosa,0.39 µM
Clc1ccc2[nH]cc(-c3cncc(-c4c[nH]c5ccc(Cl)cc45)n3)c2c1,MIC90,Staphylococcus aureus [3],0.39 µM
same,Activity,Acinetobacter baumannii [4],inactive
same,solubility,[12],Insoluble
same,Activity,[5],inactive
CC(=O)NC[C@H]1CN(c2ccc(N3CCOCC3)c(F)c2)C(=O)O1,Activity,Cell membrane [1],inactive
same,Activity,Cell membrane [2],inactive
c1cc(-c2c[nH]c3ccccc23)nc(-c2c[nH]c3ccccc23)c1,MIC90,Staphylococcus aureus [3],> 100 µM
same,Activity,Acinetobacter baumannii [4],inactive
same,Activity,[5],inactive
COc1ccc2[nH]cc(-c3cnc(-c4c[nH]c5ccc(OC)cc45)nc3)c2c1,Activity,Staphylococcus aureus [6],inactive
same,Activity,Enterococcus faecium [7],inactive
same,MIC90,Staphylococcus aureus [3],50 µM
same,Activity,Acinetobacter baumannii [4],inactive
same,Activity,Enterococcus faecalis [8],inactive
same,Activity,Enterococcus faecium [9],inactive
same,Activity,Enterococcus faecalis [10],inactive
same,Activity,[5],inactive
Clc1ccc2[nH]cc(-c3ccc(-c4c[nH]c5ccc(Cl)cc45)nn3)c2c1,Activity,Staphylococcus aureus [13],Active
same,Activity,Staphylococcus aureus [14],Active
same,Activity,MRC5,Toxic
same,fold change (FC),Staphylococcus aureus [15],100
same,MIC90,Staphylococcus aureus [3],0.78 µM
same,selectivity ratio,[16],8
same,Activity,Staphylococcus aureus [17],<10 CFU/ml
same,Activity,THP-1,Toxic
same,Activity,Acinetobacter baumannii [4],inactive
same,selectivity ratio,[18],8
same,Activity,[5],inactive
same,Activity,Staphylococcus aureus [19],Active
Fc1ccc2[nH]cc(-c3cnc(-c4c[nH]c5ccc(F)cc45)cn3)c2c1,MIC90,Staphylococcus aureus [3],> 100 µM
same,Activity,Acinetobacter baumannii [4],inactive
same,Activity,[5],inactive
Clc1ccc2[nH]cc(-c3cnc(-c4c[nH]c5ccc(Cl)cc45)cn3)c2c1,Activity,MRC5,Toxic
same,fold change (FC),Staphylococcus aureus [15],100
same,MIC90,Staphylococcus aureus [3],0.39 µM
same,selectivity ratio,[16],32
same,Stabilty,[20],Stable
same,Activity,Staphylococcus aureus [17],100 CFU/ml
same,Activity,THP-1,Toxic
same,Activity,Acinetobacter baumannii [4],inactive
same,Activity,Staphylococcus aureus [21],100 CFU/ml
same,solubility,[12],Insoluble
same,selectivity ratio,[18],32
same,Activity,[5],inactive
c1cc(-c2c[nH]c3ncccc23)nc(-c2c[nH]c3ncccc23)c1,MIC90,Staphylococcus aureus [3],> 100 µM
same,Activity,Acinetobacter baumannii [4],inactive
same,Activity,[5],inactive
